# Experimental data taken from patent publication US5194371A, “Production of pradimicin antibiotics” (Bristol-Myers Squibb Company, priority 1991, dated 1993).
# Experiments:
# strain AB 1236 = experiment: Antibiotic susceptibility of strain AB 1236 (antibiotic disks); assay type: cell-based, Actinomadura sp. AB 1236; conditions: 37° C., 4 days
# Method: Antibiotic susceptibility of strain AB 1236 was tested using antibiotic disks (Tridisk, Eiken Chemical Co., Ltd.). The disks were placed onto the surface of yeast-glucose-malt agar (yeast extract 0.1%, glucose 1%, malt extract 0.1%, CaCl2.2H2 O 0.05% and agar 1.5%) which had been seeded by strain AB 1236 (4% inoculum), and the plates were then incubated at 37° C. for 4 days. Strain AB 1236 was resistant to 50 μg of fosfomycin and 300 U of polymixin B, and susceptible to 20 U of ampicillin, 1 μg of clavulanic acid, 2 μg of ticarcillin, 10 μg of cephalexin, 30 μg of tetracycline, 10 μg of chloramphenicol, 0.5 μg of erythromycin, 2 μg of josamycin, 2 μg of lincomycin, 5 μg of kanamycin, 5 μg of gentamicin, 5 μg of tobramycin, 2 μg of nalidixic acid, 2 μg of norfloxacin and 50 U of colistin.
# Candida albicans A9540 = experiment: In vivo efficacy against C. albicans A9540 systemic infection in mice; design: species or system male ICR mice infected with Candida albicans; conditions: A9540, iv, 504 h, i.v., single dose immediately after challenge, survival on day 21, read-out: PD50 (median protective dose)
# Method: The in vivo efficacy of BMY-28960 was evaluated against Candida albicans A9540 systemic infection in male ICR mice (20-24 g body weight). Five mice are used for each dose level. Mice were challenged intravenously with 10 times the median lethal dose of the pathogen suspended in saline and BMY-28960 was intravenously administered once immediately after the challenge. The median protective dose (PD50) was calculated from survival rates recorded on day 21.
# [1] = Tolerability following intravenous administration in ICR mice; assay type: in vivo; conditions: i.v., up to 600 mg/kg
compound,measurement,setting,value
CCn1cc(C(=O)O)c(=O)c2ccc(C)nc21 [nalidixic acid],Antibiotic susceptibility of strain AB 1236,strain AB 1236; disk 2 μg,susceptible
josamycin,Antibiotic susceptibility of strain AB 1236,strain AB 1236; disk 2 μg,susceptible
polymixin B,Antibiotic susceptibility of strain AB 1236,strain AB 1236; disk 300 U,resistant
CCn1cc(C(=O)O)c(=O)c2cc(F)c(N3CCNCC3)cc21 [norfloxacin],Antibiotic susceptibility of strain AB 1236,strain AB 1236; disk 2 μg,susceptible
CC1(C)S[C@@H]2[C@H](NC(=O)[C@H](C(=O)O)c3ccsc3)C(=O)N2[C@H]1C(=O)O [ticarcillin],Antibiotic susceptibility of strain AB 1236,strain AB 1236; disk 2 μg,susceptible
CC1(C)S[C@@H]2[C@H](NC(=O)[C@H](N)c3ccccc3)C(=O)N2[C@H]1C(=O)O [ampicillin],Antibiotic susceptibility of strain AB 1236,strain AB 1236; disk 20 U,susceptible
O=C(N[C@H](CO)[C@H](O)c1ccc([N+](=O)[O-])cc1)C(Cl)Cl [chloramphenicol],Antibiotic susceptibility of strain AB 1236,strain AB 1236; disk 10 μg,susceptible
C[C@@H]1O[C@@H]1P(=O)(O)O [fosfomycin],Antibiotic susceptibility of strain AB 1236,strain AB 1236; disk 50 μg,resistant
NC[C@H]1O[C@H](O[C@H]2[C@H](O)[C@@H](O[C@H]3O[C@H](CO)[C@@H](O)[C@H](N)[C@H]3O)[C@H](N)C[C@@H]2N)[C@H](O)[C@@H](O)[C@@H]1O [kanamycin],Antibiotic susceptibility of strain AB 1236,strain AB 1236; disk 5 μg,susceptible
O=C(O)[C@H]1/C(=C/CO)O[C@@H]2CC(=O)N21 [clavulanic acid],Antibiotic susceptibility of strain AB 1236,strain AB 1236; disk 1 μg,susceptible
C[C@@H]1[C@H](O)[C@@H](C)/C=C/C=C/C=C/C=C/C=C/C=C/C=C/[C@H](O[C@@H]2O[C@H](C)[C@@H](O)[C@H](N)[C@@H]2O)C[C@@H]2O[C@](O)(C[C@@H](O)C[C@@H](O)[C@H](O)CC[C@@H](O)C[C@@H](O)CC(=O)O[C@H]1C)C[C@H](O)[C@H]2C(=O)O [Amphotericin B],ED50,Candida albicans A9540,0.31 mg/kg
OC(Cn1cncn1)(Cn1cncn1)c1ccc(F)cc1F [Fluconazole],ED50,Candida albicans A9540,> 50 mg/kg
CC[C@H]1OC(=O)[C@H](C)[C@@H](O[C@H]2C[C@@](C)(OC)[C@@H](O)[C@H](C)O2)[C@H](C)[C@@H](O[C@@H]2O[C@H](C)C[C@H](N(C)C)[C@H]2O)[C@](C)(O)C[C@@H](C)C(=O)[C@H](C)[C@@H](O)[C@]1(C)O [erythromycin],Antibiotic susceptibility of strain AB 1236,strain AB 1236; disk 0.5 μg,susceptible
gentamicin,Antibiotic susceptibility of strain AB 1236,strain AB 1236; disk 5 μg,susceptible
CN[C@@H]1[C@H](O[C@@H]2OC[C@@H](O)[C@H](O)[C@H]2O)[C@@H](O)[C@H](O[C@H]2c3cc(C)c(C(=O)N[C@H](C)C(=O)O)c(O)c3-c3c(cc4c(c3O)C(=O)c3cc(OC)cc(O)c3C4=O)[C@@H]2O)O[C@@H]1C [Pradimicin A],ED50,Candida albicans A9540,10 mg/kg
CN(C)C1C(=O)C(C(N)=O)=C(O)C2(O)C(=O)C3=C(O)c4c(O)cccc4C(C)(O)C3CC12 (stereo not shown) [tetracycline],Antibiotic susceptibility of strain AB 1236,strain AB 1236; disk 30 μg,susceptible
colistin,Antibiotic susceptibility of strain AB 1236,strain AB 1236; disk 50 U,susceptible
CCC[C@@H]1C[C@@H](C(=O)N[C@@H]([C@H]2O[C@H](SC)[C@H](O)[C@@H](O)[C@H]2O)[C@@H](C)O)N(C)C1 [lincomycin],Antibiotic susceptibility of strain AB 1236,strain AB 1236; disk 2 μg,susceptible
CC1=C(C(=O)O)N2C(=O)[C@@H](NC(=O)[C@H](N)c3ccccc3)[C@H]2SC1 [cephalexin],Antibiotic susceptibility of strain AB 1236,strain AB 1236; disk 10 μg,susceptible
"COc1cc(O)c2c(c1)C(=O)c1c(cc3c(c1O)-c1c(cc(C)c(C(=O)N[C@H](CO)C(=O)O)c1O)[C@H](O[C@@H]1O[C@H](C)[C@H](O)[C@H](O[C@@H]4OC[C@@H](O)[C@H](O)[C@H]4O)[C@H]1O)[C@H]3O)C2=O [BMY-28960, 4'-deamino-4'-axial-hydroxypradimicin FA-2]",ED50,Candida albicans A9540,6.7 mg/kg
same,Lethality and apparent side effects,[1],neither lethality nor apparent side effects were noted
same,Solubility in solvent,"Solubility in solvent; Dimethyl sulfoxide, N,N-dimethylformamide and alkaline water",Soluble
same,Solubility in solvent,"Solubility in solvent; Ethanol, methanol and acetone",Slightly soluble
same,Solubility in solvent,"Solubility in solvent; Ethyl acetate, benzene, chloroform, acidic water, etc.",Isoluble
NC[C@H]1O[C@H](O[C@H]2[C@H](O)[C@@H](O[C@H]3O[C@H](CO)[C@@H](O)[C@H](N)[C@H]3O)[C@H](N)C[C@@H]2N)[C@H](N)C[C@@H]1O [tobramycin],Antibiotic susceptibility of strain AB 1236,strain AB 1236; disk 5 μg,susceptible
